Columns and labels:
Format in all cases: in vivo
[1] = tested on: DIO-NASH mice (C57Bl/6J male mice); assay: Absolute and relative body weight, 8 weeks assay in DIO-NASH mice; conditions: 50 mg/kg, p.o., b.i.d., statistics at day 54, vs DIO-NASH vehicle
Protocol: (§1) The assay was carried out to evaluate the effect of the compounds of the invention on body weight of animals with non-alcoholic fat liver disease (DIO-NASH mice). For this assay, the effect of compound 4a in absolute and relative body weight was evaluated. DIO-NASH mice (C57Bl/6J male mice) were treated with a hydrochloride salt of compound 4a during 8 weeks (50 mg/kg, p.o., b.i.d.), versus a pathological control of DIO-NASH mice and a non-pathological control LEAN-CHOW mice, both treated with the vehicle (0.9% NaCl). The DIO-NASH mice group were put on high fat diet (40% AMLN diet, D09100301 Research Diets, USA) and a control group (LEAN-CHOW) was put on a regular chow diet (Altromin 1324, Brogaarden, Denmark) for 35 weeks prior to the study.
Body weight of for each of the groups taken on a daily basis. The animals were kept under the same conditions were used as in example 2.2.

[2] = tested on: DIO-NASH mice (C57Bl/6J male mice); assay: Liver inflammation: galectin-3 IHC staining in DIO-NASH mice; conditions: 50 mg/kg, p.o., b.i.d., 8 weeks
Protocol: To assess the effect of the compounds of the invention in inflammation of liver in the treatment of non-alcoholic fat liver disease, liver galactin-3 (inflammation marker) levels were determined after a 8 weeks study where DIO-NASH mice (C57Bl/6J male mice) were treated with a hydrochloride salt of compound 4a during 8 weeks (50 mg/kg, p.o., b.i.d.), versus a pathological control of DIO-NASH mice and a non-pathological control LEAN-CHOW mice, both treated with the vehicle (0.9% NaCl).
Galectin-3 was measured via galtactin-3 IHC staining: galectin-3 (Biolegend, Cat. #125402) IHC were performed using standard procedures. Briefly, after antigen retrieval and blocking of endogenous peroxidase activity, slides were incubated with primary antibody. The primary antibody was detected using a linker secondary antibody followed by amplification using a polymeric HRP-linker antibody conjugate. Next, the primary antibody was visualized with DAB as chromogen. Finally, sections were counterstained in hematoxylin and cover-slipped.

[3] = tested on: DIO-NASH mice (C57Bl/6J male mice); assay: Total fat content in liver (morphometry, H&E), 8 weeks assay in DIO-NASH mice; conditions: 50 mg/kg, p.o., b.i.d., vs DIO-NASH vehicle
Excerpt: The DIO-NASH mouse model is fed a high fat diet that results on non-alcoholic fat liver disease and are based on C57Bl/6J mice put on a 40% high fat diet prior to the assays. For the assessment of effect of the compounds of the invention in liver lipid content in non-alcoholic fat liver disease, 34 C57Bl/6J male mice (5-week-old at delivery), obtained from Janvier, France, were used. The DIO-NASH mice group were put on high fat diet (40% AMLN diet, D09100301 Research Diets, USA) and a control group (LEAN-CHOW) was put on a regular chow diet (Altromin 1324, Brogaarden, Denmark) for 35 weeks prior to the study.
The animals (kept in single housings) were checked minimum once daily where signs of abnormal behavior, abnormal locomotor activity, ataxia or clinical signs of disease (lack of grooming, raised fur, signs of pain upon handling, loss of excessive body-weight) were followed closely. […]
To assess the effect of compound 4a on hepatic lipid content in mice with non-alcoholic fat liver disease, DIO-NASH mice (C57Bl/6J male mice) were treated with a hydrochloride salt of compound 4a during 8 weeks (50 mg/kg, p.o., b.i.d.), versus a control of DIO-NASH mice treated with saline (0.9% NaCl) and versus LEAN-CHOW mice also treated with saline (0.9% NaCl), […]. Liver lipid content was determined by morphometry. […]

[4] = tested on: DIO-NASH mice (C57Bl/6J male mice); assay: Liver weight, 8 weeks assay in DIO-NASH mice; conditions: 50 mg/kg, p.o., b.i.d., vs DIO-NASH vehicle
Protocol: The animals were kept and examined under the same conditions were used as in example 2.2. The liver biopsies were also carried out under the same conditions as in example 2.2.
as §1, with “To assess” for “The assay was carried out to evaluate the effect of the compounds of the invention on body weight of animals with non-alcoholic fat liver disease (DIO-NASH mice). For this assay,”, “on liver” for “in absolute and relative body”, “of mice with non-alcoholic fat liver disease,” for “was evaluated.”

## COc1ccc(-c2nc(C(=O)NCCN)cc3c2[nH]c2ccccc23)cc1 [Compound 4a, N(-ethylamine)-1-benzosubstituted-β-carboline-3-carboxamide]
[1]
  absolute body weight: reduced body weight
  relative body weight versus the body weight at the start of the treatment (day 0 is 100%): reduced relative body weight significantly
[2]; end of study
  anti-galectin-3 staining, representative images of liver samples: visible change in this inflammation marker
[2]; vs DIO-NASH vehicle
  total liver galectin-3 content determined by morphometry: reduced total galectin-3 content
[3]
  steatosis in representative images of liver morphology (H&E): diminished the steatosis
[3]; p<0.001
  liver lipid content (steatosis) determined by morphometry: reduced liver lipid content
[4]
  total liver weight: reduced liver weight
